According to patent publication EP3153515A1, “COMPOUNDS FOR INHIBITING HEPATITIS C VIRUS, PHARMACEUTICAL COMPOSITIONS AND USES THEREOF” (priority 2014, dated 2015):
Read-outs that look alike come from different tables or passages of the source.

How the values were obtained:
[1] = system: HCV NS5A replicon GT-lb; assay: HCV NS5A replicon anti-viral activity (EC50), GT-1b; type: cell-based; conditions: Hepatitis C virus, genotype 1a / genotype 6a, read-out: Inhibitory activity against various HCV-NS5A subtypes(EC50, GT-1a to GT-6a) GT-lb
Description: (§1) The autonomous replication level of HCV in liver cells in vitro is very low, and the only animal that can be infected by HCV is chimpanzee, therefore there is no appropriate animal model currently available for preclinical pharmacodynamic study. Some researchers have transplanted human liver tissue infected with HCV in vitro into immune deficient mice to establish an in vivo mice model, but these mice are hard to raise and the model is unstable and short of normal immunologic reaction. Moreover, the model has significant difference with the pathogenic process of hepatitis C, therefore, it has not been used for animal model to assess the action of anti-HCV medicine yet. The progress of the development of anti-viral drugs for the treatment of HCV infection had been very slow because the pathogenic mechanism and life cycle of HCV were unclear before 1999 due to the lack of cell culture system for effective multiplication of HCV. But researchers managed to achieve a breakthrough in 1999 after numerous attempts. An effective cell culture model-replicon system in which HCV is capable of autonomous replication in transfected human hepatic carcinoma cell line Huh-7 had been established in that year on the basis of subgenomic HCV RNA built with genetic engineering.
(§2) The above-mentioned cell culture model-replicon system which has been widely accepted in the industry is used in this invention for ex vivo experiments and subsequent assessment of drugs based on the experiment results.
(§3) The therapeutic effect of the compounds of this invention on HCV infection can be preliminarily assessed through the following preclinical in vitro inhibitory action test and can be further confirmed in clinical trials. Other methods used in the invention are also quite familiar to professionals in this field with ordinary technical knowledge. Method for testing the anti-viral activity(EC50) in HCV NS5A replicon system: • The viral replication level in infected cells was determined by testing Renilla luciferase with the newly established dual-reporter gene replicon system. There was a good linear relation between the expression level of the reporter gene and the HCV RNA replication level and viral protein expression level. The anti-viral activity was determined for 3 replicates in 3 replicate cells at five(5) 1:2 diluted concentration gradients, with 1 to 2 positive controls. The EC50 of the compounds was calculated in the end.
(§4) The compounds of the invention, or their stereoisomers, tautomers, esterified or amidated prodrugs, or pharmaceutically acceptable salts and mixtures have been subjected to test to determined their therapeutic effects in the treatment of HCV infection. […] Moreover, the results of 6a-6ep(Ia), 6fa-6gq(Ib) and reference compounds Ref-1(BMS-790052), Ref-2(GS5885), Ref-3 in HCV-NS5 inhibition test reveal that the cyclopentanyl/hexamethyleneamino radical containing linear polypeptide compounds 6a-6ep, 6fa-6gq and reference compounds Ref-1, Ref-2, Ref-3 have good HCV inhibitory results. […] The replicons GT-1a, GT-lb, GT-2a, GT-3a, GT-4a, GT-5a and GT-6a used for the test are routine replicons commercially available in this field. Table 1: HCV NS5A replicon inhibitory activity test results of compounds (6a-6gq) of the invention

[2] = system: HCV NS5A replicon GT-6a; assay: HCV NS5A replicon anti-viral activity (EC50), GT-6a; type: cell-based; conditions: Hepatitis C virus, genotype 1a / genotype 6a; GT-6a replicon; read-out: Inhibitory activity against various HCV-NS5A subtypes(EC50, GT-1a to GT-6a) GT-6a
Description: as §1, §2, §3, §4

[3] = system: HCV NS5A replicon GT-4a; assay: HCV NS5A replicon anti-viral activity (EC50), GT-4a; type: cell-based; conditions: Hepatitis C virus, genotype 1a / genotype 4a / genotype 6a, read-out: Inhibitory activity against various HCV-NS5A subtypes(EC50, GT-1a to GT-6a) GT-4a
Description: as §1, §2, §3, §4

[4] = system: HCV NS5A replicon GT-1a; assay: HCV NS5A replicon anti-viral activity (EC50), dual-reporter Renilla luciferase, GT-1a; type: cell-based; conditions: for inhibitory activity compared with Ref-1(BMS-790052), Ref-2(GS5885), Ref-3 and Ref-4 (in words): comparison drawn from Table 2
Description: as §1, §2, §3, §4

[5] = system: HCV NS5A replicon GT-2a; assay: HCV NS5A replicon anti-viral activity (EC50), GT-2a; type: cell-based; conditions: Hepatitis C virus, genotype 1a / genotype 2a / genotype 6a; GT-2a replicon; read-out: Inhibitory activity against various HCV-NS5A subtypes(EC50, GT-1a to GT-6a) GT-2a
Description: as §1, §2, §3, §4

[6] = system: HCV NS5A replicon GT-5a; assay: HCV NS5A replicon anti-viral activity (EC50), GT-5a; type: cell-based; conditions: Hepatitis C virus, genotype 1a / genotype 5a / genotype 6a, read-out: Inhibitory activity against various HCV-NS5A subtypes(EC50, GT-1a to GT-6a) GT-5a
Description: as §1, §2, §3, §4

[7] = system: HCV NS5A replicon GT-3a; assay: HCV NS5A replicon anti-viral activity (EC50), GT-3a; type: cell-based; conditions: Hepatitis C virus, genotype 1a / genotype 3a / genotype 6a, read-out: Inhibitory activity against various HCV-NS5A subtypes(EC50, GT-1a to GT-6a) GT-3a
Description: as §1, §2, §3, §4

[8] = system: ICR mice; assay: MTD screening test (acute toxicity study) in mice; type: in vivo; conditions: high dosage
Experimental: Method: ICR mice, 10 mice/group, 5 males and 5 females. A treatment group and a control group are set up for every drugs, respectively, mice in control group were administered 0.5%CMC-Na solution, i.e. the solvent of the drugs. The mice were fasted overnight but granted free access to water before the administration. Their body weight before the administration of drugs is in the range of 18.8∼24.1 g. The mice were administered the drugs by peroral lavage at the dosage of 40 mL/kg. The mice were closely observed 3 hours after the administration and twice a day afterwards for 7 days, one in the morning and one in the afternoon. At the end of the observation period, 2 mice (1 male and 1 female) were randomly selected from each treatment group and subjected to histopathological examination of part of their tissues and organs.
Two third of the novel heterocyclic compounds that have good HCV inhibiting activity (EC50: <0.05nM) after administration of the drugs by lavage at the dosage of 2000mg/kg yield a survival rate of 100%. […] Two third of the novel compounds that show high HCV inhibiting activity have very low overall toxicity (survive rate of mice after administration: 100%). It is believed that these compounds are generally nontoxic.

[9] = Hepatitis C virus, GT1A, GT-1a replicon, read-out: NS5A Inhibitory Activity (EC50 of GT-1a subtype inhibition)
[10] = Hepatitis C virus, genotype 1a / genotype 6a, read-out: Inhibitory activity against various HCV-NS5A subtypes(EC50, GT-1a to GT-6a) GT-1a

| SMILES | EC50 [1] [nM] | EC50 [2] [nM] | EC50 [3] [nM] | EC50 [4, 9] [nM] | EC50 [4, 10] [nM] | EC50 [5] [nM] | EC50 [6] [nM] | EC50 [7] [nM] | toxicity (in words) [8] | inhibitory activity compared with Ref-1(BMS-790052), Ref-2(GS5885), Ref-3 and Ref-4 (in words) [4] | EC50 ([4]; GT-1a replicon, read-out: Inhibitory activity against various HCV-NS5A subtypes(EC50, GT-1a to GT-6a) GT-1a) [nM] | EC50 ([4]; GT-1a replicon, read-out: NS5A Inhibitory Activity (EC50 of GT-1a subtype inhibition)) [nM] |
| --- | --- | --- | --- | --- | --- | --- | --- | --- | --- | --- | --- | --- |
| COC(=O)N[C@H](C(=O)N1CC=C[C@H]1c1ncc(-c2ccc(-c3ccc(-c4c[nH]c([C@@H]5CCCN5C(=O)[C@@H](NC(=O)OC)C(C)C)n4)cc3)cc2)[nH]1)C(C)C [6ba] | 0.012 | 0.221 | 0.01 | 0.001 to 0.999 | 0.039 | 0.016 | 0.023 | 0.173 | – | – | – | – |
| COC(=O)N[C@H](C(=O)N1CCC[C@H]1c1nc(-c2ccc(-c3ccc(-c4cnc([C@@H]5C=CCN5C(=O)[C@H](NC(=O)OC)c5ccccc5)[nH]4)cc3)cc2)c[nH]1)C(C)C [6dy] | 0.014 | 0.024 | 0.008 | 0.001 to 0.999 | 0.011 | 0.006 | 0.023 | 0.015 | low toxicity at high dosage | significantly superior | – | – |
| COC(=O)N[C@H](C(=O)N1CC=C[C@H]1c1ncc(-c2ccc(-c3cc4sc(-c5cnc([C@@H]6CCCN6C(=O)[C@H](NC(=O)OC)c6ccccc6)[nH]5)cc4s3)cc2)[nH]1)C(C)C [6fd] | 0.005 | 0.055 | 0.005 | 0.001 to 0.999 | 0.02 | 0.007 | 0.013 | 0.026 | – | – | – | – |
| COC(=O)N[C@H](C(=O)N1CCC[C@H]1c1ncc(-c2ccc(-c3cc4sc(-c5cnc([C@@H]6C=CCN6C(=O)[C@H](NC(=O)OC)c6ccccc6)[nH]5)cc4s3)cc2)[nH]1)C(C)C [6fg] | 0.013 | 0.023 | 0.012 | 0.001 to 0.999 | 0.009 | 0.008 | 0.029 | 0.024 | – | significantly superior | – | – |
| COC(=O)N[C@@H](C(=O)N1CC=C[C@H]1c1ncc(-c2ccc(-c3csc4c(-c5c[nH]c([C@@H]6CCCN6C(=O)[C@H](NC(=O)OC)c6ccccc6)n5)csc34)cc2)[nH]1)c1ccccc1 [6fm] | – | – | – | 0.001 to 0.999 | – | – | – | – | low toxicity at high dosage | – | – | – |
| COC(=O)N[C@H](C(=O)N1CCC[C@H]1c1nc(-c2ccc(-c3ccc(-c4cnc([C@@H]5CCCN5C(=O)[C@@H](NC(=O)OC)C(C)C)[nH]4)cc3)cc2)c[nH]1)C(C)C [Ref-1, BMS-790052, reference compound] | 0.021 | 0.118 | 0.011 | 0.001 to 0.999 | 0.052 | 0.029 | 0.036 | 0.218 | – | – | – | – |
| COC(=O)N[C@H](C(=O)N1CCC[C@H]1c1nc2cc(-c3csc4c(-c5ccc(-c6c[nH]c([C@@H]7CCCN7C(=O)[C@H](NC(=O)OC)c7ccccc7)n6)cc5)csc34)ccc2[nH]1)C(C)C [Ref-4, IDX-719, reference compound] | – | – | – | – | – | – | – | – | – | – | 0.022 | 0.001 to 0.999 |
